# Data from patent US6358885B1, “Substituted phenylheterocyclic herbicides” (Mississippi State University, priority 1992, dated 2002).
# How the values were obtained:
# barley [1] = assay: Test B preemergence/postemergence greenhouse plant response rating 0 to 10; type: in vivo, Hordeum vulgare; settings: for Plant response rating, Barley: 0 to 10 scale
# Summary of the method: (§1)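 Both application timings were run together: seeds got compound preemergence, and established seedlings (two to eighteen cm) got it postemergence. Non-phytotoxic solvent carried the chemical. Ratings are visual, versus controls, at twelve to sixteen days.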
# blackgrass = assay: as above; type: in vivo, Alopecurus myosuroides; settings: for Plant response rating, Blackgrass: 0 to 10 scale
# Summary of the method: as §1
# cheatgrass = assay: as above; type: in vivo, Bromus secalinus; settings: for Plant response rating, Cheatgrass: 0 to 10 scale
# Summary of the method: as §1
# crabgrass = assay: as above; type: in vivo, Digitaria spp.; settings: for Plant response rating, Crabgrass: 0 to 10 scale
# Summary of the method: as §1
# giant foxtail = assay: as above; type: in vivo, Setaria faberii; settings: 0 to 10 scale
# Summary of the method: as §1
# lambsquarters [2] = assay: as above; type: in vivo, Chenopodium album; settings: 0 to 10 scale
# Summary of the method: as §1
# rape = assay: as above; type: in vivo, Brassica napus; settings: 0 to 10 scale
# Summary of the method: as §1
# soybean [3] = assay: as above; type: in vivo, Glycine max; settings: 0 to 10 scale
# Summary of the method: as §1
# velvetleaf = assay: as above; type: in vivo, Abutilon theophrasti; settings: 0 to 10 scale
# Summary of the method: as §1
# purple nutsedge = assay: as above; type: in vivo, Cyperus rotundus; settings: 0 to 10 scale
# Summary of the method: as §1
# barley [4] = assay: Test C preemergence/postemergence greenhouse plant response rating 0 to 100; type: in vivo, Hordeum vulgare; settings: POSTEMERGENCE; for Plant response rating Barley Igri: 0 to 100 scale
# Description: (§2) The compounds evaluated in this test were formulated in a non-phytoxic solvent and applied to the soil surface before plant seedlings emerged (preemergence application), to water that covered the soil surface (flood application), and to plants that were in the one-to-four leaf stage (postemergence application). A sandy loam soil was used for the preemergence and postemergence tests, while a silt loam soil was used in the flood test. Water depth was approximately 2.5 cm for the flood test and was maintained at this level for the duration of the test. Plant species in the preemergence and postemergence tests consisted of barley (Hordeum vulgare), bedstraw (Galium aparine), blackgrass (Alopecurus myosuroides), chickweed (Stellaria media), corn (Zea mays), cotton (Gossypium hirsutum), crabgrass (Digitaria sanguinalis), downy brome (Bromus tectorum), giant foxtail (Setaria faberii), lambsquarters (Chenopodium album), morningglory (Ipomoea hederacea), pigweed ([…]), rape (Brassica napus), ryegrass (Lolium multiflorum), sorghum (Sorghum bicolor), soybean (Glycine max), speedwell (Veronica persica), sugar beet (Beta vulgaris), velvetleaf (Abutilon theophrasti), wheat (Triticum aestivum), wild buckwheat (Polygonum convolvulus), and wild oat (Avena fatua). All plant species were planted one day before application of the compound for the preemergence portion-of this test. Plantings of these species were adjusted to produce plants of appropriate size for the post-emergence portion of the test. […] All plant species were grown using normal greenhouse practices. Visual evaluations of injury expressed on treated plants, when compared to untreated controls, were recorded approximately fourteen to twenty one days after application of the test compound. […] A dash (-) response means no test result.
# chickweed = assay: as above; type: in vivo, Stellaria media; settings: POSTEMERGENCE; for Plant response rating, Chickweed: 0 to 100 scale
# Description: as §2
# lambsquarters [5] = assay: as above; type: in vivo, Chenopodium album; settings: POSTEMERGENCE; for Plant response rating Lambsquarters: 0 to 100 scale
# Description: as §2
# pigweed = assay: as above; type: in vivo, Amaranthusretroflexus; settings: POSTEMERGENCE; for Plant response rating Pigweed: 0 to 100 scale
# Description: as §2
# ryegrass = assay: as above; type: in vivo, Lolium multiflorum; settings: POSTEMERGENCE; for Plant response rating Ryegrass: 0 to 100 scale
# Description: as §2
# soybean [6] = assay: as above; type: in vivo, Glycine max; settings: POSTEMERGENCE; for Plant response rating, Soybean: 0 to 100 scale
# Description: as §2
# sugar beet = assay: as above; type: in vivo, Beta vulgaris; settings: POSTEMERGENCE; for Plant response rating, Sugar beet: 0 to 100 scale
# Description: as §2
# wild buckwheat = assay: as above; type: in vivo, Polygonum convolvulus; settings: POSTEMERGENCE; for Plant response rating, Wild buckwheat: 0 to 100 scale
# Description: as §2
structure (smiles),measurement,setting,value
COC(=O)C(C)Oc1cc(-c2nn3c(c2Cl)CCCC3)c(F)cc1Cl (stereo not drawn) [Compound 28],"Plant response rating (0 to 10 scale), Barley","barley [1]; POSTEMERGENCE, Rate 50 g/ha",6
same,"Plant response rating, Barley","barley [1]; POSTEMERGENCE, Rate 200 g/ha",6
same,"Plant response rating, Barley","barley [1]; PREEMERGENCE, Rate 50 g/ha",0
same,"Plant response rating, Barley","barley [1]; Rate 200 g/ha, PREEMERGENCE",0
same,"Plant response rating (0 to 10 scale), Blackgrass","blackgrass; POSTEMERGENCE, Rate 50 g/ha",4
same,"Plant response rating, Blackgrass","blackgrass; POSTEMERGENCE, Rate 200 g/ha",6
same,"Plant response rating, Blackgrass","blackgrass; PREEMERGENCE, Rate 50 g/ha",2
same,"Plant response rating, Blackgrass","blackgrass; Rate 200 g/ha, PREEMERGENCE",4
same,"Plant response rating (0 to 10 scale), Cheatgrass","cheatgrass; POSTEMERGENCE, Rate 50 g/ha",6
same,"Plant response rating, Cheatgrass","cheatgrass; POSTEMERGENCE, Rate 200 g/ha",9
same,"Plant response rating, Cheatgrass","cheatgrass; PREEMERGENCE, Rate 50 g/ha",4
same,"Plant response rating, Cheatgrass","cheatgrass; Rate 200 g/ha, PREEMERGENCE",6
same,"Plant response rating (0 to 10 scale), Crabgrass","crabgrass; POSTEMERGENCE, Rate 50 g/ha",5
same,"Plant response rating, Crabgrass","crabgrass; POSTEMERGENCE, Rate 200 g/ha",6
same,"Plant response rating, Crabgrass","crabgrass; PREEMERGENCE, Rate 50 g/ha",0
same,"Plant response rating, Crabgrass","crabgrass; Rate 200 g/ha, PREEMERGENCE",2
same,"Plant response rating, Giant foxtail","giant foxtail; POSTEMERGENCE, Rate 50 g/ha",5
same,"Plant response rating, Giant foxtail","giant foxtail; POSTEMERGENCE, Rate 200 g/ha",8
same,"Plant response rating, Giant foxtail","giant foxtail; PREEMERGENCE, Rate 50 g/ha",0
same,"Plant response rating, Giant foxtail","giant foxtail; Rate 200 g/ha, PREEMERGENCE",5
same,"Plant response rating, Lambsquarter","lambsquarters [2]; POSTEMERGENCE, Rate 50 g/ha",10
same,"Plant response rating, Lambsquarter","lambsquarters [2]; POSTEMERGENCE, Rate 200 g/ha",10
same,"Plant response rating, Lambsquarter","lambsquarters [2]; PREEMERGENCE, Rate 50 g/ha",10
same,"Plant response rating, Lambsquarter","lambsquarters [2]; Rate 200 g/ha, PREEMERGENCE",10
same,"Plant response rating, Rape","rape; POSTEMERGENCE, Rate 50 g/ha",10
same,"Plant response rating, Rape","rape; POSTEMERGENCE, Rate 200 g/ha",10
same,"Plant response rating, Rape","rape; PREEMERGENCE, Rate 50 g/ha",9
same,"Plant response rating, Rape","rape; Rate 200 g/ha, PREEMERGENCE",10
same,"Plant response rating, Soybean","soybean [3]; POSTEMERGENCE, Rate 50 g/ha",8
same,"Plant response rating, Soybean","soybean [3]; POSTEMERGENCE, Rate 200 g/ha",9
same,"Plant response rating, Soybean","soybean [3]; PREEMERGENCE, Rate 50 g/ha",0
same,"Plant response rating, Soybean","soybean [3]; Rate 200 g/ha, PREEMERGENCE",0
same,"Plant response rating, Velvetleaf","velvetleaf; POSTEMERGENCE, Rate 50 g/ha",10
same,"Plant response rating, Velvetleaf","velvetleaf; POSTEMERGENCE, Rate 200 g/ha",10
same,"Plant response rating, Velvetleaf","velvetleaf; PREEMERGENCE, Rate 50 g/ha",5
same,"Plant response rating, Velvetleaf","velvetleaf; Rate 200 g/ha, PREEMERGENCE",10
same,"Plant response rating, Nutsedge","purple nutsedge; POSTEMERGENCE, Rate 50 g/ha",2
same,"Plant response rating, Nutsedge","purple nutsedge; POSTEMERGENCE, Rate 200 g/ha",5
same,"Plant response rating, Nutsedge","purple nutsedge; PREEMERGENCE, Rate 50 g/ha",0
same,"Plant response rating, Nutsedge","purple nutsedge; Rate 200 g/ha, PREEMERGENCE",0
same,Plant response rating Barley Igri,barley [4]; 62 g/ha,40
same,Plant response rating Barley Igri,barley [4]; 250 g/ha,50
same,"Plant response rating (0 to 100), Barley Igri",barley [4]; Rate 4 g/ha,20
same,"Plant response rating (0 to 100), Barley Igri",barley [4]; Rate 16 g/ha,30
same,"Plant response rating, Chickweed",chickweed; 62 g/ha,80
same,"Plant response rating, Chickweed",chickweed; 250 g/ha,80
same,"Plant response rating (0 to 100), Chickweed",chickweed; Rate 4 g/ha,20
same,"Plant response rating (0 to 100), Chickweed",chickweed; Rate 16 g/ha,50
same,Plant response rating Lambsquarters,lambsquarters [5]; 62 g/ha,80
same,Plant response rating Lambsquarters,lambsquarters [5]; 250 g/ha,100
same,"Plant response rating (0 to 100), Lambsquarters",lambsquarters [5]; Rate 4 g/ha,50
same,"Plant response rating (0 to 100), Lambsquarters",lambsquarters [5]; Rate 16 g/ha,80
same,Plant response rating Pigweed,pigweed; 62 g/ha,100
same,Plant response rating Pigweed,pigweed; 250 g/ha,100
same,"Plant response rating (0 to 100), Pigweed",pigweed; Rate 4 g/ha,100
same,"Plant response rating (0 to 100), Pigweed",pigweed; Rate 16 g/ha,100
same,Plant response rating Ryegrass,ryegrass; 62 g/ha,60
same,Plant response rating Ryegrass,ryegrass; 250 g/ha,70
same,"Plant response rating (0 to 100), Ryegrass",ryegrass; Rate 4 g/ha,20
same,"Plant response rating (0 to 100), Ryegrass",ryegrass; Rate 16 g/ha,40
same,"Plant response rating, Soybean",soybean [6]; 62 g/ha,70
same,"Plant response rating, Soybean",soybean [6]; 250 g/ha,80
same,"Plant response rating (0 to 100), Soybean",soybean [6]; Rate 4 g/ha,0
same,"Plant response rating (0 to 100), Soybean",soybean [6]; Rate 16 g/ha,30
same,"Plant response rating, Sugar beet",sugar beet; 62 g/ha,100
same,"Plant response rating, Sugar beet",sugar beet; 250 g/ha,100
same,"Plant response rating (0 to 100), Sugar beet",sugar beet; Rate 4 g/ha,100
same,"Plant response rating (0 to 100), Sugar beet",sugar beet; Rate 16 g/ha,100
same,"Plant response rating, Wild buckwheat",wild buckwheat; 62 g/ha,70
same,"Plant response rating, Wild buckwheat",wild buckwheat; 250 g/ha,90
same,"Plant response rating (0 to 100), Wild buckwheat",wild buckwheat; Rate 4 g/ha,30
same,"Plant response rating (0 to 100), Wild buckwheat",wild buckwheat; Rate 16 g/ha,60
